Measured values as given in PubChem BioAssay (NCI).
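Exposure lasted 48 hours, with cells grown in 96-well plates and compounds tested at five concentrations. GI50 marks 50% less growth. TGI marks complete inhibition of growth.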

What was measured:
Experiment in all cases: NCI-60 cell line screen, 48 h
[1] = system: HL-60(TB) leukemia
[2] = system: OVCAR-8 ovarian
[3] = system: MDA-MB-231 breast
[4] = system: OVCAR-5 ovarian
[5] = system: SK-OV-3 ovarian
[6] = system: SK-MEL-5 melanoma
[7] = system: SW-620 colon
[8] = system: HS 578T breast
[9] = system: U251 CNS
[10] = system: SR leukemia

SMILES	TGI [1]	TGI [2]	TGI [3]	TGI [4]	TGI [5]	TGI [6]	TGI [7]	TGI [8]	TGI [9]	TGI [10]	GI50 [2]	GI50 [3]	GI50 [5]	GI50 [6]	GI50 [7]	GI50 [8]	GI50 [10]	GI50 [9]
N#CCCN(CCC#N)c1ccc(/C=C2\N=C(c3ccccc3)N(c3ccc(Cl)cc3)C2=O)cc1	> 100 µM	> 100 µM	> 100 µM	> 100 µM	> 100 µM	> 100 µM	> 100 µM	86.8 µM	> 100 µM	–	–	–	–	–	–	–	–	–
CC(C)(C)NC(=O)/C(=C\Sc1ccccc1)c1ccc2c(c1)OCO2	41.9 µM	> 100 µM	52.8 µM	> 100 µM	> 100 µM	32.8 µM	> 100 µM	–	98.6 µM	83.8 µM	–	–	–	–	–	–	–	–
C=CCNC(=S)/N=C/c1c(O)c2ccccc2oc1=O	> 100 µM	> 100 µM	–	> 100 µM	> 100 µM	> 100 µM	> 100 µM	–	> 100 µM	–	–	–	–	–	–	–	–	–
CCN(CCO)CC1COc2ccccc2O1 (configuration not stated)	> 100 µM	> 100 µM	> 100 µM	> 100 µM	> 100 µM	> 100 µM	–	> 100 µM	> 100 µM	> 100 µM	–	–	–	–	–	–	–	–
CCN(C(=S)N[C@@H](Cc1ccccc1)C(=O)N[C@@H](CC(C)C)C(=O)OC)c1ccccc1	–	> 100 µM	> 100 µM	> 100 µM	> 100 µM	> 100 µM	> 100 µM	–	> 100 µM	61.6 µM	–	–	–	–	–	–	–	–
O=[N+]([O-])/C(C(Cl)=C(Cl)Cl)=C(\Nc1cccc2cccnc12)SCc1ccccc1	–	–	> 100 µM	78.9 µM	43.4 µM	–	36.8 µM	19.3 µM	33.2 µM	–	–	–	–	–	–	–	–	–
Cc1c(C(=O)CSc2nc3ccccc3c(=O)n2-c2ccccc2)c(=O)n(-c2ccccc2)n1C	> 100 µM	–	–	> 100 µM	41.4 µM	> 100 µM	> 100 µM	–	69.2 µM	> 100 µM	–	–	–	–	–	–	–	–
NNC(=O)c1ccc[n+](CCc2ccccc2)c1	> 100 µM	> 100 µM	> 100 µM	> 100 µM	> 100 µM	> 100 µM	> 100 µM	> 100 µM	> 100 µM	–	–	–	–	–	–	–	–	–
CC(=O)N/N=C1\NC(=O)C[C@H]2[C@@H]3CC=C4C[C@@H](OC(C)=O)CC[C@]4(C)[C@H]3CC[C@]12C	> 100 µM	> 100 µM	39.3 µM	> 100 µM	53.7 µM	> 100 µM	> 100 µM	88.6 µM	28.7 µM	–	–	–	–	–	–	–	–	–
C=C[C@@H]1C(CO)=CCC2[C@H]1CCC1C(C)(C)C(=O)CC[C@]21C (some centres not stated)	> 100 µM	–	–	> 100 µM	> 100 µM	> 100 µM	> 100 µM	> 100 µM	> 100 µM	> 100 µM	–	–	–	–	–	–	–	–
COc1cc([N+](=O)[O-])c(OC)cc1-c1nc2sc(Cl)cn2c1/C=N/Nc1ccccn1	–	> 50 µM	30.7 µM	–	16.5 µM	36 µM	> 50 µM	> 50 µM	14.3 µM	12.1 µM	17.3 µM	8.61 µM	9.11 µM	12.8 µM	> 50 µM	16.8 µM	0.0877 µM	7.65 µM
N=S(c1ccccc1)c1ccccc1[N+](=O)[O-] (configuration not stated)	36.5 µM	51.5 µM	–	34.7 µM	84.6 µM	28.5 µM	31.4 µM	–	31.2 µM	50.1 µM	–	–	–	–	–	–	–	–
Cc1cc2[nH]c3[nH]c(=O)[nH]c(=O)c3c2cc1C	–	> 100 µM	> 100 µM	> 100 µM	> 100 µM	> 100 µM	> 100 µM	> 100 µM	–	> 100 µM	–	–	–	–	–	–	–	–
COc1ccc2nc3cc(Cl)ccc3c(NCCCNCCCNc3c4ccc(Cl)cc4nc4ccc(OC)cc34)c2c1	23.2 µM	–	0.0555 µM	0.237 µM	0.384 µM	–	–	–	0.13 µM	2.73 µM	–	–	–	–	–	–	–	–
O=C1c2cc3c(cc2CC1Br)CCC3 (configuration not stated)	> 20.1 µM	4.04 µM	13.9 µM	14.9 µM	15.9 µM	3.36 µM	3 µM	> 100 µM	8.09 µM	–	–	–	–	–	–	–	–	–
CN(C)C(=S)S	–	> 100 µM	> 100 µM	> 100 µM	> 100 µM	> 100 µM	> 100 µM	> 100 µM	> 100 µM	–	–	–	–	–	–	–	–	–
COc1cc(C2SCC(=O)N2c2ccc(NC(=O)c3ccc(N4C(=O)CSC4c4cc(OC)c(OC)c(OC)c4)cc3)cc2)cc(OC)c1OC (configuration not stated)	–	> 100 µM	> 100 µM	> 100 µM	> 100 µM	> 100 µM	> 100 µM	> 100 µM	> 100 µM	–	–	–	–	–	–	–	–	–
O=C(NCCN1CCOCC1)c1ccc2cc(C(=O)N3CC(CCl)c4ccc([N+](=O)[O-])cc43)[nH]c2c1 (configuration not stated)	94.7 µM	35.4 µM	36.3 µM	> 100 µM	40.5 µM	4.73 µM	> 100 µM	52.4 µM	57.8 µM	–	–	–	–	–	–	–	–	–
Cc1ccccc1C(O)(c1nccn1C)c1nccn1C	> 100 µM	> 100 µM	–	> 100 µM	> 100 µM	> 100 µM	> 100 µM	> 100 µM	> 100 µM	> 100 µM	–	–	–	–	–	–	–	–
C=CCOC(=O)CC[N+]1=CCC(c2ccccc2)(c2ccccc2)O1	–	> 100 µM	> 100 µM	> 100 µM	> 100 µM	> 100 µM	> 100 µM	> 100 µM	> 100 µM	–	–	–	–	–	–	–	–	–
COCOc1ccc(Cn2c(=O)n(C)c(=O)c3c2ncn3C)cc1[N+](=O)[O-]	> 100 µM	> 100 µM	–	–	> 100 µM	–	> 100 µM	–	> 100 µM	> 100 µM	–	–	–	–	–	–	–	–
c1ccc2c(c1)NC(C1OC3CCCN3C1C1Nc3ccccc3S1)S2 (configuration not stated)	46.7 µM	> 100 µM	–	> 100 µM	> 100 µM	> 100 µM	> 100 µM	> 100 µM	> 100 µM	> 100 µM	–	–	–	–	–	–	–	–
O=C1CN2C(c3ccccc3)=NN(c3ccc([N+](=O)[O-])cc3)C2(c2ccccc2)c2cc(Cl)ccc2N1CC1CC1 (configuration not stated)	–	> 100 µM	> 100 µM	> 100 µM	> 100 µM	> 100 µM	> 100 µM	> 100 µM	> 100 µM	> 100 µM	–	–	–	–	–	–	–	–
C/C=C/C=C/c1nc(C#N)c(N)o1	–	> 100 µM	> 100 µM	> 100 µM	> 100 µM	–	> 100 µM	> 100 µM	> 100 µM	> 100 µM	–	–	–	–	–	–	–	–
